Data: US8357350B2, “Annulus fibrosus detection in intervertebral discs using molecular imaging agents” (General Electric Company, priority 2009, dated 2013)

Legend:
[1] = Absorbance and fluorescence spectra of FM fluorophores in solvents; assay type: physicochemical
Protocol: (§1) Absorbance and fluorescence spectra of the FM fluorophores were measured in PBS and absolute methanol (MeOH) using fiber-optic HR2000 (200-1100 nm) and USB2000FL (350-1000 nm) spectrometers (Ocean Optics, Dunedin, Fla.), respectively. Fluorescence excitation was provided by a 2 mW, 532 nm laser diode. The fluorescence and absorbance spectra of FORMULA II and FORMULA IA were collected in dimethyl sulfoxide (DMSO) and fetal bovine serum (FBS), as well as MeOH and PBS. The quantum yield of FORMULA II and FORMULA IA in DMSO, MeOH, FBS and PBS was measured by comparing the integrated fluorescence emission of the fluorophores in each solvent to the emission of Alexa Fluor 555 (Invitrogen) in PBS (quantum yield=10%) as a reference standard under conditions of matched absorbance at the excitation wavelength. The LogD of each FM fluorophore at pH 7.5 was calculated using Marvin 5.0.3 software (ChemAxon, Budapest, Hungary).

[2] = system: intervertebral discs (annulus fibrosus); assay: Intraoperative imaging of the spine in a pig; assay type: in vivo, Yorkshire pig; conditions: 0.47 mg/kg IV, 5 h
Protocol: Imaging was carried out at near infrared wavelenghts using a 400- to 700-nm “white” light (0.5 mW/cm^2) and a 725- to 775-nm NIR fluorescence excitation light (5 mW/cm^2). Fluorescence images were collected using exposure times ranging from 500 to 2000 msec. All images collected for comparison between vehicle-injected control animals and FM fluorophore-injected animals had the same exposure time and normalization. Color video images were collected on a separate optical channel using custom designed software. The excitation and emission LEDs and filter used for the FM fluorophores and Pam800 in the intraoperative imaging system are described as follows. For fluorescence excitation of FM 1-43, FM 2-10, FM 1-43FX and Formula IA, sixty 5-mm 470 nm LEDs ([…], Inc., Kyoto, Japan) fitted with 470±20 nm band pass (BP) excitation filters (Chroma Technology, Rockingham, Vt.) in custom holders were used, which produced a fluence rate on the imaging surface of 0.56 mW/cm^2. For fluorescence excitation of Formula II, FM 4-64, FM 4-64FX and FM 5-95, sixty 5-mm 535 nm LEDs fitted with 525±25 nm BP excitation filters were used, which produced a fluence rate on the imaging surface of 0.34 mW/cm^2. A 610±38 nm BP filter was used to detect fluorescence emission of FM 1-43, FM 2-10, Formula II, FM 1-43FX and Formula IA. To detect fluorescence emission of FM 4-64, FM 4-64FX and FM 5-95 a 720 nm long pass (LP) filter was used. For fluorescence excitation of Pam800, 348 5-mm 760 nm LEDs fitted with 764±17 nm BP excitation filters were used, which produced a fluence rate on the imaging surface of 8.73 mW/cm^2 and fluorescence emission was detected using a 824±24 nm BP emission filter. FORMULA IA was also evaluated in a Yorkshire pig. […] The pig was monitored under anesthesia during the drug incubation period, after which the animal was sacrificed. […] Tissues from mice, rats and pig were preserved for microscopic assessment and localization of fluorescence signal. […] Exposure times were adjusted between 5 and 2000 ms for fluorescence images.

[3] = Fluorescence quantum yield versus Alexa Fluor 555 reference; assay type: physicochemical; conditions: highest in FBS among DMSO, MeOH, PBS
Protocol: as §1

Em nm (MeOH) ([1]; emission maximum in MeOH): 624 nm
Em nm (PBS) ([1]; emission maximum in PBS): 628 nm
Ex nm (MeOH) ([1]; excitation maximum in MeOH): 510 nm
Ex nm (PBS) ([1]; excitation maximum in PBS): 497 nm
fluorescence quantum yield, times higher in FBS [3]: 5 times
SMILES: CCCCN(CCCC)c1ccc(/C=C/c2cc[n+](CCC[N+](C)(C)C)cc2)cc1.[Br-].[Br-] [Formula IA, (E)-4-(4-(dibutylamino)styryl)-1-(3-(trimethylammonio)propyl)pyridinium dibromide]
contrast in the intervertebral discs of the pig [2]: dramatic positive contrast
origin of signal within the disc (sagittal and axial sectioning) [2]: majority of the signal was emanating from the annulus fibrosus, and not the nucleus pulposus
microscopic fluorescence pattern in disc sections ([2]; fluorescence microscopy vs H&E): punctate and linear following the lamellae structures of the annulus fibrosus
